# Tested on: gene expression in Col-0 seedling shoots
# Experiment: Microarray analysis (ATH1 Affymetrix) after BL or abrasin treatment
# Format: in vivo, Arabidopsis
# Conditions: 30 min
# Procedure: FIG. 14: Clustering of gene expression profiles by QT-clust analysis. Clusters illustrating the major patterns of the data sets. Points: BIK-30: 30 μM abrasin 30 min; BL-30: 1 μM brassinolide 30 min; DMSO-30: control DMSO 30 min; BIK-120: 30 μM abrasin 120 min; BL-120: 1 μM brassinolide 120 min; DMSO-120: control DMSO 120 min.
# Col-0 seeds were germinated vertically on ½ MS medium for 7 days under 16 h light/8 h dark cycles. The seedlings were overlaid with liquid ½ MS medium containing 1 μM brassinolide (BL, Fuji Chemical Industries, Ltd., Toyama, Japan), 30 μM abrasin (BIK, ChemBridge Corporation) and DMSO and treated for 30 and 120 min. The shoot parts were collected for RNA isolation. All sampling points were performed in three independent experiments. RNA was extracted using RNeasy kit (Qiagene). […] total RNA per array was used to hybridise the ATH1 Affymetrix Arabidopsis arrays according to standard procedure. The overrepresentation analyses were performed using BiNGO software (Maere et al., 2005).
# We performed a microarray analysis using the Arabidopsis whole genome chip (Affymetix) to determine whether abrasin activated the expression of BR-inducible genes at transcriptional level. Wild-type Col-0 seedlings were exposed to 1 μM BL, 30 μM ABRASIN and DMSO (mock-treatment) for two time points (30 min and 120 min) and the shoot parts were collected for RNA isolation. The analysis of the variance of the normalized gene expression data took in account the variability parameters affecting the expression level: type of hormone treatment, duration of treatment and the interaction between these two.
smiles,measurement,setting,value
"CC(C)[C@H](C)[C@@H](O)[C@H](O)[C@@H](C)[C@H]1CC[C@H]2[C@@H]3COC(=O)[C@H]4C[C@H](O)[C@H](O)C[C@]4(C)[C@H]3CC[C@]12C [BL, brassinolide, reference compound]",Fold-change AT4G16563 aspartyl protease family protein,,1.44
same,Fold-change AT4G16670 expressed protein,,0.78
same,Fold-change AT4G16780 homeobox-leucine zipper protein 4 (HAT4)/HD-ZIP protein,,0.62
same,Fold-change AT4G17250 expressed protein,,0.86
same,Fold-change AT4G17460 homeobox-leucine zipper protein 1 (HAT1)/HD-ZIP protein 1,,0.54
same,Fold-change AT4G21510 F-box family protein,,1.47
same,Fold-change AT4G23030 MATE efflux protein-related,,1.37
same,Fold-change AT4G23070 rhomboid family protein,,1.02
same,Fold-change AT4G23810 WRKY family transcription factor,,0.71
same,"Fold-change AT4G24160 hydrolase, alpha/beta fold family protein",,1.13
same,Fold-change AT4G25620 hydroxyproline-rich glycoprotein family protein,,0.87
same,Fold-change AT4G25780 pathogenesis-related protein,,0.74
same,Fold-change AT4G27970 C4-dicarboxylate transporter/malic acid transport family protein,,1.20
same,Fold-change AT4G28240 wound-responsive protein-related,,0.77
same,"Fold-change AT4G28490 leucine-rich repeat transmembrane protein kinase, putative",,1.00
same,Fold-change AT4G28703 expressed protein,,0.85
same,Fold-change AT4G28780 GDSL-motif lipase/hydrolase family protein,,1.25
same,Fold-change AT4G29070 expressed protein,,0.90
same,Fold-change AT4G30080 transcriptional factor B3 family protein,,0.94
same,Fold-change AT4G31020 expressed protein,,1.53
same,Fold-change AT4G32280 auxin-responsive AUX/IAA family protein (IAA29),,0.66
same,Fold-change AT4G33050 calmodulin-binding family protein,,0.99
same,Fold-change AT4G33700 CBS domain-containing protein,,0.81
same,Fold-change AT4G34610 homeodomain-containing protein,,0.86
same,Fold-change AT4G36110 auxin-responsive protein,,2.35
same,Fold-change AT4G36780 brassinosteroid signalling positive regulator-related,,0.71
same,Fold-change AT4G37240 expressed protein,,1.23
same,Fold-change AT4G37290 expressed protein,,0.90
same,Fold-change AT4G37590 phototropic-responsive NPH3 family protein,,0.90
same,Fold-change AT4G38840 auxin-responsive protein (SAUR14),,1.26
same,Fold-change AT4G38850 auxin-responsive protein (SAUR-AC1),,1.43
same,Fold-change AT4G38860 auxin-responsive protein (SAUR16),,1.38
same,Fold-change AT4G39400 brassinosteroid insensitive 1 (BRI1),,0.96
same,Fold-change AT5G02020 expressed protein,,0.99
same,Fold-change AT5G05690 cytochrome P450 90A1 (CYP90A1) (CYP90) (CPD),,0.93
same,Fold-change AT5G07690 myb family transcription factor (MYB29),,0.82
same,Fold-change AT5G08130 basic helix-loop-helix (bHLH) family protein (BIM2),,0.79
same,Fold-change AT5G12050 expressed protein,,0.73
same,Fold-change AT5G13180 no apical meristem (NAM) family protein,,1.07
same,Fold-change AT5G13740 sugar transporter family protein,,0.77
same,Fold-change AT5G14730 expressed protein,,0.80
same,Fold-change AT5G16200 50S ribosomal protein-related,,0.70
same,Fold-change AT5G16980 NADP-dependent oxidoreductase,,1.15
same,Fold-change AT5G18750 DNAJ heat shock N-terminal domain-containing protein,,1.03
same,Fold-change AT5G19200 short-chain dehydrogenase/reductase (SDR) family protein,,1.22
same,Fold-change AT5G19340 expressed protein,,0.68
same,Fold-change AT5G24030 C4-dicarboxylate transporter/malic acid transport family protein,,1.43
same,Fold-change AT5G24660 expressed protein,,1.33
same,Fold-change AT5G25240 expressed protein,,1.21
same,Fold-change AT5G25930 leucine-rich repeat family protein,,0.98
same,Fold-change AT5G27350 sugar-porter family protein 1 (SFP1),,1.11
same,Fold-change AT5G27670 histone H2A,,0.86
same,Fold-change AT5G38310 expressed protein,,0.98
same,"Fold-change AT5G38990; AT5G39000 [AT5G38990, protein kinase family protein",,0.94
same,Fold-change AT5G39050 transferase family protein,,1.35
same,Fold-change AT5G39610 no apical meristem (NAM) family protein,,0.65
same,Fold-change AT5G39970 expressed protein,,1.08
same,Fold-change AT5G42830 transferase family protein,,0.87
same,Fold-change AT5G47370 homeobox-leucine zipper protein 2 (HAT2),,0.94
same,Fold-change AT5G48070 putative xyloglucan endotransglycosylase/hydrolase,,1.12
same,Fold-change AT5G48540 33 kDa secretory protein-related,,1.01
same,Fold-change AT5G51550 phosphate-responsive 1 family protein,,0.86
same,"Fold-change AT5G54490 calcium-binding EF-hand protein, putative",,0.37
same,Fold-change AT5G54860 integral membrane transporter family protein,,0.92
same,Fold-change AT5G55970 zinc finger (C3HC4-type RING finger) family protein,,1.03
same,Fold-change AT5G56980 expressed protein,,0.75
same,Fold-change AT5G57190 phosphatidylserine decarboxylase,,1.04
same,Fold-change AT5G57780 expressed protein,,0.41
same,Fold-change AT5G59080 expressed protein,,0.62
same,Fold-change AT5G60200 Dof-type zinc finger domain-containing protein,,0.82
same,Fold-change AT5G60270 lectin protein kinase family protein,,1.03
same,Fold-change AT5G60630 expressed protein,,0.94
same,Fold-change AT5G61600 encodes a member of the ERF (ethylene response factor),,0.46
same,Fold-change AT5G62360 invertase/pectin methylesterase inhibitor family protein,,0.92
same,Fold-change AT5G65310 homeobox-leucine zipper protein 5 (HB-5)/HD-ZIP transcription factor 5,,0.91
same,Fold-change AT5G66420 expressed protein,,1.04
same,Fold-change AT5G66590 allergen V5/Tpx-1-related family protein,,1.21
same,Fold-change AT5G67450 zinc finger (C2H2 type) protein 1 (AZF1),,1.79
same,Fold-change of gene AT4G16140 (proline-rich family protein),"245479_at, Cluster 6",0.83
same,Fold-change of gene AT4G15260 (UDP-glucoronosyl/UDP-glucosyl transferase family protein),"245543_at, Cluster 7",1.01
same,"Fold-change of gene AT5G09440 (phosphate-responsive protein, putative)","245885_at, Cluster 5",0.58
same,Fold-change of gene AT1G77380 (amino acid carrier),"246389_at, Cluster 10",0.94
same,Fold-change of gene AT5G15740 (expressed protein),"246516_at, Cluster 5",0.95
same,Fold-change of gene AT5G65300 (expressed protein),"247177_at, Cluster 5",0.25
same,Fold-change of gene AT5G64890 (expressed protein),"247205_at, Cluster 10",0.97
same,Fold-change of gene AT5G63790 (no apical meristem (NAM) family protein),"247351_at, Cluster 9",0.49
same,Fold-change of gene AT5G62630 (expressed protein),"247444_at, Cluster 7",1.26
same,Fold-change of gene AT5G60850 (Dof-type zinc finger domain-containing protein),"247601_at, Cluster 10",1.09
same,Fold-change of gene AT5G59510 (expressed protein),"247704_at, Cluster 9",0.98
same,Fold-change of gene AT5G58660 (oxidoreductase. 2OG-Fe(II) oxygenase family protein),"247774_at, Cluster 5",1.08
same,Fold-change of gene AT5G54120 (expressed protein),"248190_at, Cluster 5",1.04
same,Fold-change of gene AT5G54130 (calcium-binding EF hand family protein),"248191_at, Cluster 5",1.03
same,Fold-change of gene AT5G52900 (expressed protein),"248282_at, Cluster 6",0.74
same,Fold-change of gene AT5G49100 (expressed protein),"248646_at, Cluster 9",0.70
same,Fold-change of gene AT5G18060 (auxin-responsive protein),"250012_x_at, Cluster 6",0.76
same,Fold-change of gene AT5G09800 (U-box domain-containing protein),"250493_at, Cluster 9",0.80
same,Fold-change of gene AT5G08565 (expressed protein),"250537_at, Cluster 8",1.06
same,Fold-change of gene AT5G03670 (expressed protein),"250907_at, Cluster 5",0.60
same,Fold-change of gene AT5G01740 (expressed protein),"251072_at, Cluster 5",0.53
same,Fold-change of gene AT3G63380 (calcium-transporting ATPase),"251176_at, Cluster 10",0.87
same,Fold-change of gene AT3G60690 (auxin-responsive family protein),"251342_at, Cluster 9",0.87
same,Fold-change of gene AT3G45610 (Dof-type zinc finger domain),"252586_at, Cluster 10",0.90
same,Fold-change of gene AT3G44610 (protein kinase family protein),"252646_at, Cluster 5",1.05
same,Fold-change of gene AT4G34760 (auxin-responsive family protein),"253255_at, Cluster 6",0.81
same,Fold-change of gene AT4G34138 (UDP-glucoronosyl/UDP-glucosyl transferase family protein),"253281_at, Cluster 7",1.17
same,Fold-change of gene AT4G31910 (transferase family protein),"253483_at, Cluster 5",1.15
same,Fold-change of gene AT4G30410 (expressed protein),"253617_at, Cluster 5",0.97
same,Fold-change of gene AT4G30450 (glycine-rich protein),"253629_at, Cluster 5",0.88
same,Fold-change of gene AT4G26200 (1-aminocyclopropane-1-carboxylate synthase),"253999_at, Cluster 9",0.29
same,Fold-change of gene AT4G03400 (auxin-responsive GH3 family protein),"255403_at, Cluster 6",0.59
same,Fold-change of gene AT4G02700 (sulfate transporter),"255443_at, Cluster 7",1.69
same,Fold-change of gene AT1G22190 (AP2 domain-containing transcription factor),"255926_at, Cluster 8",0.83
same,Fold-change of gene AT1G66140 (zinc finger (C2H2 type) family protein),"256528_at, Cluster 6",0.72
same,Fold-change of gene AT3G25655 (expressed protein),"256762_at, Cluster 8",0.98
same,"Fold-change of gene AT3G21420 (oxidoreductase, 2OG-Fe(II) oxygenase family protein)","256818_at, Cluster 7",1.11
same,Fold-change of gene AT3G18280 (protease inhibitor/seed storage/lipid transfer protein),"257066_at, Cluster 5",1.06
same,Fold-change of gene AT1G29440 (auxin-responsive family protein),"257506_at, Cluster 6",0.69
same,"Fold-change of gene AT3G29200 (chorismate mutase, chloroplast (CM1))","257746_at, Cluster 5",0.89
same,Fold-change of gene AT1G13260 (DNA-binding protein RAV1 (RAV1)),"259364_at, Cluster 8",0.61
same,Fold-change of gene AT1G29500 (auxin-responsive protein),"259773_at, Cluster 6",0.79
same,Fold-change of gene AT1G29510 (auxin-responsive protein),"259783_at, Cluster 6",0.77
same,Fold-change of gene AT1G29450 (auxin-responsive protein),"259784_at, Cluster 6",0.75
same,Fold-change of gene AT1G29460 (auxin-responsive protein),"259787_at, Cluster 6",0.75
same,"Fold-change of gene AT1G76690; AT1G76680 ([AT1G76690, 12-oxophytodienoate reductase (OPR2))","259875_s_at, Cluster 7",0.85
same,Fold-change of gene AT1G76620 (expressed protein),"259985_at, Cluster 8",0.94
same,Fold-change of gene AT1G63720 (expressed protein),"260243_at, Cluster 10",0.74
same,Fold-change of gene AT1G48100 (glycoside hydrolase family 28 protein),"260727_at, Cluster 8",1.06
same,Fold-change of gene AT1G12200 (flavin-containing monooxygenase family protein),"261023_at, Cluster 7",1.11
same,Fold-change of gene AT1G12845 (expressed protein),"261203_at, Cluster 6",0.98
same,Fold-change of gene AT1G15550 (gibberellin 3-beta-dioxygenase),"261768_at, Cluster 6",0.77
same,Fold-change of gene AT1G80840 (WRKY family transcription factor),"261892_at, Cluster 9",0.27
same,Fold-change of gene AT1G80080 (leucine-rich repeat family protein),"262040_at, Cluster 6",0.77
same,Fold-change of gene AT1G80130 (expressed protein),"262050_at, Cluster 8",1.04
same,Fold-change of gene AT1G21680 (expressed protein),"262505_at, Cluster 10",1.12
same,Fold-change of gene AT1G34245 (expressed protein),"262543_at, Cluster 6",1.14
same,Fold-change of gene AT1G78460 (SOUL heme-binding family protein),"263126_at, Cluster 7",0.88
same,"Fold-change of gene AT1G78820; AT1G78830 ([AT1G78820, curculin-like (mannose-binding) lectin family protein)","264279_s_at, Cluster 7",0.88

# Reference: patent US8273775B2, “Non-steroidal brassinosteroid mimetic” (priority 2006, dated 2012)
